# Experimental data reported in patent US8039430B2 (University of Wollongong, priority 2005, dated 2011).
# Legend:
# [1] = test system: Staphylococcus aureus (ATCC 6538P); experiment: Antibacterial assay (MIC), Staphylococcus aureus ATCC 6538P, Luria Broth, Example 1; type: cell-based; settings: Staphylococcus aureus, ATCC6538P; Example 1 compounds; S. aureus ATCC 6538P; 24 hrs, 37° C.; range if at least two of three values fell within it; read-out: Sa (minimum inhibitory concentration)
# Protocol: (§1) Antibacterial Assay Method for Staphylococcus aureus (ATCC 6538P) and Enterococcus faecium
# Staphylococcus aureus (ATCC 6538P)
# (§2) Compounds are accurately weighed out (between approx. 1-2 mg) and dissolved in either 10% methanol/water (v/v) or 100% DMSO to a final stock concentration of 5 mg/ml.
# (§3) Compounds are then diluted 1/10 in H2O to a test conc of 500 ug/ml ready for immediate use, or storage at −20° C.
# (§4) Grow up an o/n starter culture of Staphylococcus aureus and each VRE strain by diluting previous culture (stored at 4° C.) 1/1000 into −50 mls Luria Broth (LB) for S. aureus or Enterococossel Broth (EB) for the VRE strains.
# (§5) Incubate o/n at 37° C.+shaking. • A glycerol stock (0.6 mls bacterial culture, 0.3 mls glycerol) of each strain is kept at −80° C. if needed. Assay Set Up:
# (§6) In a 96well round bottom plate add 50 ul LB/well for the S. aureus plate and add 50 ul EB/well for the VRE plates.
# (§7) Add 50 ul of compound dilution (500 ug/ml test conc) to each of three top row wells (ie: tested in triplicate) and dilute 1 in 2 from the top row to the bottom row.
# (§8) After the compound dilution, add to each well 50 ul of a 1/1000 dilution of the appropriate overnight bacterial culture, either S. aureus or the different VRE strains.
# (§9) Plates are incubated at 37° C. on a slowly rotating plate incubator. • test concentrations are (in ug/ml) 125, 62.5, 31.25, 15.6, 7.8, 3.9, 1.9, 0.98 • final DMSO concentration in the first row of wells of the assay is 2.5% • Vancomycin is included in the assay (in triplicate) at a starting test concentration of 5 ug/ml for S. aureus and 125 ug/ml for the VRE strains Reading Results of Assay:
# (§10) After incubation for 24 hrs the plates are removed and read. Inhibition of bacterial growth is indicated by lack of bacterial pellet or a clear well. In the VRE plates bacterial growth is indicated by black coloured media (EB) as well as a bacterial pellet.
# (§11) Untreated control wells are included in the assay to check they all contain bacterial pellets. Uninoculated untreated control wells are included to check they all contain clear medium.
# (§12) The plates are analysed for MIC and the results tabulated.
# [2] = test system: #243 E. faecium van B ST17; experiment: Antibacterial assay (MIC), VRE strain #243, Enterococossel Broth, Example 1; type: cell-based, Enterococcus faecium; settings: Enterococcus faecium; Example 1 compounds; VRE #243 E. faecium van B; 24 hrs, 37° C.; read-out: 243 (minimum inhibitory concentration)
# Protocol: as §1
# (§13) VRE strains: #243 E. faecium van B ST17 #449 E. faecium van B ST17
# as §2, §3, §4, §5, §6, §7, §8, §9, §10, §11, §12
# [3] = test system: #449 E. faecium van B ST17; experiment: Antibacterial assay (MIC), VRE strain #449, Enterococossel Broth, Example 1; type: cell-based, Enterococcus faecium; settings: Enterococcus faecium; Example 1 compounds; VRE #449 E. faecium van B; 24 hrs, 37° C.; read-out: 449 (minimum inhibitory concentration)
# Protocol: as §1, §13, §2, §3, §4, §5, §6, §7, §8, §9, §10, §11, §12
# [4] = test system: #820 E. faecium van A ST17; experiment: Antibacterial assay (MIC), VRE strain #820, Enterococossel Broth, Example 1; type: cell-based, Enterococcus faecium; settings: Enterococcus faecium; Example 1 compounds; VRE #820 E. faecium van A; 24 hrs, 37° C.; read-out: 820 (minimum inhibitory concentration)
# Protocol: as §1
# (§14) #820 E. faecium van A ST17 #987 E. faecium van B ST39
# as §2, §3, §4, §5, §6, §7, §8, §9, §10, §11, §12
# [5] = test system: #987 E. faecium van B ST39; experiment: Antibacterial assay (MIC), VRE strain #987, Enterococossel Broth, Example 1; type: cell-based, Enterococcus faecium; settings: Enterococcus faecium; Example 1 compounds; VRE #987 E. faecium van B; 24 hrs, 37° C.; read-out: 987 (minimum inhibitory concentration)
# Protocol: as §1, §14, §2, §3, §4, §5, §6, §7, §8, §9, §10, §11, §12
Structure (SMILES),MIC [1] [µg/mL],MIC [2] [µg/mL],MIC [3] [µg/mL],MIC [4] [µg/mL],MIC [5] [µg/mL]
"CC(C)CCOc1ccc2ccccc2c1-c1c(OCC(=O)N[C@H](CCCCN)C(=O)N[C@H](CCCNC(=N)N)C(=O)N[C@H](C(=O)OCc2ccccc2)C(C)C)ccc2ccccc12.Cl.Cl (atropisomer, axis not shown) [Compound 2]",0.99 to 15.6,15.7 to 62.5,15.7 to 62.5,15.7 to 62.5,15.7 to 62.5
"CC(C)CCOc1ccc2ccccc2c1-c1c(OCC(=O)N[C@H](CCCCN)C(=O)N[C@H](CCCNC(=N)N)C(=O)N[C@@H](CC(C)C)C(=O)OCc2ccc(Cl)cc2)ccc2ccccc12.Cl.Cl (atropisomer, axis not shown) [Compound 4]",0.99 to 15.6,15.7 to 62.5,15.7 to 62.5,15.7 to 62.5,15.7 to 62.5
"CC(C)CCOc1ccc2ccccc2c1-c1c(OCC(=O)N[C@H](CCCCN)C(=O)N[C@H](CCCNC(=N)N)C(=O)N[C@@H](CC(C)C)C(=O)OCc2ccc([N+](=O)[O-])cc2)ccc2ccccc12.Cl.Cl (atropisomer, axis not shown) [Compound 5]",0.99 to 15.6,15.7 to 62.5,15.7 to 62.5,15.7 to 62.5,15.7 to 62.5
"CC(C)CCOc1ccc2ccccc2c1-c1c(OCC(=O)N[C@H](CCCCN)C(=O)N[C@H](CCCNC(=N)N)C(=O)N[C@@H](CC(C)C)C(=O)OCc2cccc(Cl)c2)ccc2ccccc12.Cl.Cl (atropisomer, axis not shown) [Compound 6]",0.99 to 15.6,15.7 to 62.5,15.7 to 62.5,15.7 to 62.5,15.7 to 62.5
"CC(C)CCOc1ccc2ccccc2c1-c1c(OCC(=O)N[C@H](CCCCN)C(=O)N[C@H](CCCNC(=N)N)C(=O)N[C@@H](CC(C)C)C(=O)OCc2ccccc2Cl)ccc2ccccc12.Cl.Cl (atropisomer, axis not shown) [Compound 7]",0.99 to 15.6,15.7 to 62.5,15.7 to 62.5,15.7 to 62.5,15.7 to 62.5
"CC(C)CCOc1ccc2ccccc2c1-c1c(OCC(=O)N[C@H](CCCCN)C(=O)N[C@H](CCCNC(=N)N)C(=O)N[C@@H](CC(C)C)C(=O)OCc2c(Cl)cccc2Cl)ccc2ccccc12.Cl.Cl (atropisomer, axis not shown) [Compound 8]",15.7 to 62.5,> 62.6,> 62.6,> 62.6,> 62.6
"Cc1ccc(COC(=O)[C@H](CC(C)C)NC(=O)[C@@H](CCCNC(=N)N)NC(=O)[C@@H](CCCCN)NC(=O)COc2ccc3ccccc3c2-c2c(OCCC(C)C)ccc3ccccc23)cc1.Cl.Cl (atropisomer, axis not shown) [Compound 9]",0.99 to 15.6,> 62.6,15.7 to 62.5,15.7 to 62.5,15.7 to 62.5

# Results, then the molecule that gave them:
MIC [1] [µg/mL],MIC [2] [µg/mL],MIC [3] [µg/mL],MIC [4] [µg/mL],MIC [5] [µg/mL],Structure (SMILES)
0.99 to 15.6,15.7 to 62.5,15.7 to 62.5,15.7 to 62.5,15.7 to 62.5,"CC(C)CCOc1ccc2ccccc2c1-c1c(OCC(=O)N[C@H](CCCCN)C(=O)N[C@H](CCCNC(=N)N)C(=O)N[C@@H](CC(C)C)C(=O)OCc2ccccc2)ccc2ccccc12 (atropisomer, axis not shown) [Compound 10]"
0.99 to 15.6,15.7 to 62.5,15.7 to 62.5,15.7 to 62.5,15.7 to 62.5,"CC(C)CCOc1ccc2ccccc2c1-c1c(OCC(=O)N[C@H](CCCCN)C(=O)N[C@H](CCCNC(=N)N)C(=O)N[C@@H](CC(C)C)C(=O)OCCc2ccccc2)ccc2ccccc12.Cl.Cl (atropisomer, axis not shown) [Compound 13]"
0.99 to 15.6,15.7 to 62.5,15.7 to 62.5,15.7 to 62.5,> 62.6,"CC(C)CCOc1ccc2ccccc2c1-c1c(OCC(=O)N[C@H](CCCCN)C(=O)N[C@H](CCCNC(=N)N)C(=O)N[C@@H](CC(C)C)C(=O)NCc2ccccc2)ccc2ccccc12.Cl.Cl (atropisomer, axis not shown) [Compound 14]"
